≈ marks a conversion by molar mass, not a printed value. Where two headings read alike, the source gives them in different places.
Key:
[1] = system: Staphylococcus aureus 209 P; assay: Antibacterial spectra in vitro, MIC on agar plates; type: cell-based; details: IFM No. 2014, nutrient agar, 37° C., 24 hours
[2] = system: Staphylococcus aureus Smith; assay: Antibacterial spectra in vitro, MIC on agar plates; type: cell-based; details: IFM No. 2018, nutrient agar, 37° C., 24 hours
[3] = system: Staphylococcus albus; assay: Antibacterial spectra in vitro, MIC on agar plates; type: cell-based; details: IFM No. 2013, nutrient agar, 37° C., 24 hours
[4] = system: Staphylococcus citreus; assay: Antibacterial spectra in vitro, MIC on agar plates; type: cell-based; details: IFM No. 2025, nutrient agar, 37° C., 24 hours
[5] = system: Sarcina lutea; assay: Antibacterial spectra in vitro, MIC on agar plates; type: cell-based; details: Micrococcus luteus; IFM No. 2066; nutrient agar; 37° C., 24 hours
[6] = system: Bacillus subtilis PCI 219; assay: Antibacterial spectra in vitro, MIC on agar plates; type: cell-based; details: PCI219, IFM No. 2060, nutrient agar, 37° C., 24 hours
[7] = system: Bacillus cereus; assay: Antibacterial spectra in vitro, MIC on agar plates; type: cell-based; details: IFM No. 2058, nutrient agar, 37° C., 24 hours
[8] = system: Escherichia coli F1; assay: Antibacterial spectra in vitro, MIC on agar plates; type: cell-based; details: IFM No. 3002, nutrient agar, 37° C., 24 hours
[9] = system: Salmonella typhimurium; assay: Antibacterial spectra in vitro, MIC on agar plates; type: cell-based; details: Salmonella enterica, IFM No. 3023, nutrient agar, 37° C., 24 hours
[10] = system: Shigella dysenteria; assay: Antibacterial spectra in vitro, MIC on agar plates; type: cell-based; details: IFM No. 3024, nutrient agar, 37° C., 24 hours
[11] = system: Klebsiella pneumoniae; assay: Antibacterial spectra in vitro, MIC on agar plates; type: cell-based; details: IFM No. 3008, nutrient agar, 37° C., 24 hours
[12] = system: Serratia marcescens; assay: Antibacterial spectra in vitro, MIC on agar plates; type: cell-based; details: IFM No. 3029, nutrient agar, 37° C., 24 hours
[13] = system: Corynebacterium diphtheria; assay: Antibacterial spectra in vitro, MIC on agar plates; type: cell-based; details: IFM No. 2056, glucose (0.5%) agar, 37° C., 24 hours
Protocol: (§1) With respect to the antimicrobial activities of saframycins Y3 and Yd-1, the antibacterial spectra in vitro, as expressed by their minimum inhibitory concentrations (MIC), are shown in Table 2:
(§2) Medium: A=nutrient agar, B=glucose (0.5%) agar, C=Sabouraud's glucose (2%) agar.
(§3) All MIC-values shown in Table 2 are obtained from cultures on agar plates containing varying amounts of the antibiotic tested at temperatures of 37° C. after an incubation period of 24 hours (bacteria), 48 hours (fungi except candida albicans, 37° C., 48 hours, Trichophyton mentagrophytes.

[14] = system: Mycobacterium sp. 607; assay: Antibacterial spectra in vitro, MIC on agar plates; type: cell-based; details: IFM No. 2051, glucose (0.5%) agar, 37° C., 24 hours
Protocol: as §1, §2, §3

[15] = system: Pseudomonas aeruginosa; assay: Antibacterial spectra in vitro, MIC on agar plates; type: cell-based; details: IFM No. 3011, nutrient agar, 37° C., 24 hours
Protocol: as §1, §2, §3

[16] = system: Streptococcus pyogenes Cook; assay: Antibacterial spectra in vitro, MIC on agar plates; type: cell-based; details: IFM No. 2003, glucose (0.5%) agar, 37° C., 24 hours
Protocol: as §1, §2, §3

[17] = system: Streptococcus faecalis; assay: Antibacterial spectra in vitro, MIC on agar plates; type: cell-based; details: Enterococcus faecalis; IFM No. 2001; glucose (0.5%) agar; 37° C., 24 hours
[18] = system: Streptococcus pyogenes 090 R; assay: Antibacterial spectra in vitro, MIC on agar plates; type: cell-based
[19] = system: Streptococcus salivarius; assay: Antibacterial spectra in vitro, MIC on agar plates; type: cell-based; details: IFM No. 2010, glucose (0.5%) agar, 37° C., 24 hours
[20] = system: Corynebacterium xeriosis; assay: Antibacterial spectra in vitro, MIC on agar plates; type: cell-based; details: IFM No. 2057, glucose (0.5%) agar, 37° C., 24 hours
[21] = system: Mycobacterium phlei; assay: Antibacterial spectra in vitro, MIC on agar plates; type: cell-based; details: Mycolicibacterium phlei; IFM No. 2052; glucose (0.5%) agar; 37° C., 24 hours
[22] = system: Mycobacterium avium; assay: Antibacterial spectra in vitro, MIC on agar plates; type: cell-based; details: IFM No. 2054, glucose (0.5%) agar, 37° C., 24 hours
[23] = system: Nocardia asteroides; assay: Antibacterial spectra in vitro, MIC on agar plates; type: cell-based; details: IFM No. 0006, glucose (0.5%) agar, 37° C., 24 hours
[24] = system: Brucella abortus; assay: microbe, parasite or virus in culture; type: cell-based; details: 24 h
[25] = system: Candida albicans 7N; assay: Antimicrobial (fungi) MIC on agar plates; type: cell-based; details: IFM No. 40009, Sabouraud's glucose (2%) agar
[26] = system: Saccharomyces cerevisiae; assay: Antimicrobial (fungi) MIC on agar plates; type: cell-based; details: IFM No. 40025, Sabouraud's glucose (2%) agar, 48 hours
[27] = system: Rhodotorula glutinus; assay: Antimicrobial (fungi) MIC on agar plates; type: cell-based; details: IFM No. 40057, Sabouraud's glucose (2%) agar, 48 hours
[28] = system: Aspergillus niger; assay: Antimicrobial (fungi) MIC on agar plates; type: cell-based; details: IFM No. 40606, Sabouraud's glucose (2%) agar, 48 hours
[29] = system: Aspergillus oryzae; assay: Antimicrobial (fungi) MIC on agar plates; type: cell-based; details: IFM No. 40601, Sabouraud's glucose (2%) agar, 48 hours
[30] = system: Penicillium expansum; assay: Antimicrobial (fungi) MIC on agar plates; type: cell-based; details: IFM No. 40618, Sabouraud's glucose (2%) agar, 48 hours
[31] = system: Trichophyton mentagrophytes; assay: Antimicrobial (fungi) MIC on agar plates; type: cell-based; details: IFM No. 40134, Sabouraud's glucose (2%) agar
[32] = system: mouse leukaemia L 1210; assay: Cytotoxic effect in cell cultures of mouse leukaemia L 1210; type: cell-based; details: L1210, read-out: ED50 (cytotoxic effect)
[33] = system: Ehrlich ascitic tumor cells; assay: Survival of ICR mice inoculated with Ehrlich ascitic tumor cells; type: in vivo; details: for mice survived: 20 micrograms/mouse/day intraperitoneally for 7 days, from 24 hours after inoculation, 10 mice per group
Protocol: In another test, ICR mice (10 mice per group) were inoculated with Ehrlich ascitic tumor cells. Twenty-four hours after the inoculation the dose of 20 micrograms/mouse/day of saframycin Y3 or 20 micrograms/mouse/day of saframycin Yd-1 was administered intraperitoneally. The administration was continued for 7 days. […] When 5 micrograms/mouse/day of saframycin Y3 or 4 micrograms/mouse/day of Yd-1 were administered, 60-70% of the mice survived for 20 days or more.

[34] = system: mouse leukemia L 1210; assay: Effect against mouse leukemia L 1210 in BDF1 mice (US National Cancer Research Institute procedure); type: in vivo; details: for survival effect compared with critical level of effectiveness prescribed by the research institute: 10 micrograms/mouse/day intraperitoneally for one week; for survival effect [T/C×100]: 10 micrograms/mouse/day intraperitoneally for one week from 24 hours after transplantation
From the text: In another test, the effect of saframycins Y3 and Yd-1 against mouse leukemia L 1210 was examined by using BDF1 mice according to the procedure as established by the US National Cancer Research Institute.

[35] = system: Lewis lung cancer; assay: Effect against metastasis of Lewis lung cancer (foot pad inoculation, leg amputation); type: in vivo, BDF1 mice; details: 40 micrograms/mouse/day for 10 days i.p.; seven days after last administration; control: abundant metastasis
Protocol: In another test, the effect of saframycin Yd-1 against metastasis of Lewis lung cancer was determined in the following manner:
The foot pads of the left hind legs of BDF1 mice having a body weight of 20 g were subcutaneously inoculated with 1.5×10^5 Lewis lung cancer cells. After seven days the legs were amputated.
(§4) A physiological sodium chloride solution was administered intraperitoneally to the control group while saframycin Yd-1 was given at a dose of 40 micrograms/mouse/day for 10 days i.p. to the group to be treated. Seven days after the last administration, the mice were sacrificed and the spread of metastasis in the lungs was compared. […] In anther experiment, the effect against Lewis lung cancer was evaluated according to the guidelines of the USA Cancer Institute (R. L. Geran et al. Cancer Chemotherapy Reports, Part 3, Vol. 3, No. 2 (1972)).

[36] = system: Lewis lung cancer; assay: Effect against Lewis lung cancer according to guidelines of the USA Cancer Institute; type: in vivo; details: 20 micrograms/mouse/day intraperitoneally for 10 days
Protocol: as §4

Compound | MIC [1] | MIC [2] | MIC [3] | MIC [4] | MIC [5] | MIC [6] | MIC [7] | MIC [8] | MIC [9] | MIC [10] | MIC [11] | MIC [12] | MIC [13] | MIC [14] | MIC [15] | MIC [16] | MIC [17] | MIC [19] | MIC [20] | MIC [21] | also measured
COC1=C(C)C(=O)C2=C(C1=O)C1C3CC4=C(C(=O)C(OC)=C(C)C4=O)C(CNC(=O)C(C)N)N3C(C#N)C(C2)N1C (stereo not drawn) [Saframycin Y3] | 1 µg/mL (≈ 1.77 µM) | 0.1 µg/mL (≈ 0.177 µM) | 1 µg/mL (≈ 1.77 µM) | 0.1 µg/mL (≈ 0.177 µM) | 1 µg/mL (≈ 1.77 µM) | 10 µg/mL (≈ 17.7 µM) | 50 µg/mL (≈ 88.7 µM) | 50 µg/mL (≈ 88.7 µM) | 50 µg/mL (≈ 88.7 µM) | 10 µg/mL (≈ 17.7 µM) | 10 µg/mL (≈ 17.7 µM) | 50 µg/mL (≈ 88.7 µM) | < 0.001 µg/mL | > 100 µg/mL | > 100 µg/mL | < 0.001 µg/mL | 10 µg/mL (≈ 17.7 µM) | 50 µg/mL (≈ 88.7 µM) | 1 µg/mL (≈ 1.77 µM) | 50 µg/mL (≈ 88.7 µM) | MIC ([18]; IFM No. 2006, glucose (0.5%) agar, 37° C., 24 hours, read-out: MIC): 0.1 µg/mL (≈ 0.177 µM); MIC [22]: 50 µg/mL (≈ 88.7 µM); MIC [23]: 50 µg/mL (≈ 88.7 µM); MIC [24]: 1 µg/mL (≈ 1.77 µM); MIC [25]: > 100 µg/mL; MIC [26]: > 100 µg/mL; MIC [27]: > 100 µg/mL; MIC [28]: > 100 µg/mL; MIC [29]: > 100 µg/mL; MIC [30]: > 100 µg/mL; MIC [31]: > 100 µg/mL; IC50 [32]: 0.0016 µg/mL (≈ 0.00284 µM); mice survived for 20 days or more ([33]; 5 micrograms/mouse/day): 60-70%; mice survived [33]: all mice survived; survival effect compared with critical level of effectiveness prescribed by the research institute [34]: exceed the critical level of effectiveness; survival effect [T/C×100] [34]: 130%
CCC(N)C(=O)NCC1C2=C(CC3C4C5=C(CC(C(C#N)N13)N4C)C(=O)C(C)=C(OC)C5=O)C(=O)C(C)=C(OC)C2=O (stereo not drawn) [Saframycin Yd-1] | 1 µg/mL (≈ 1.73 µM) | 1 µg/mL (≈ 1.73 µM) | 10 µg/mL (≈ 17.3 µM) | 0.1 µg/mL (≈ 0.173 µM) | 1 µg/mL (≈ 1.73 µM) | 1 µg/mL (≈ 1.73 µM) | 50 µg/mL (≈ 86.6 µM) | 50 µg/mL (≈ 86.6 µM) | 50 µg/mL (≈ 86.6 µM) | 10 µg/mL (≈ 17.3 µM) | 10 µg/mL (≈ 17.3 µM) | 50 µg/mL (≈ 86.6 µM) | < 0.001 µg/mL | > 100 µg/mL | > 100 µg/mL | < 0.001 µg/mL | 10 µg/mL (≈ 17.3 µM) | 50 µg/mL (≈ 86.6 µM) | 1 µg/mL (≈ 1.73 µM) | 50 µg/mL (≈ 86.6 µM) | MIC ([18]; 24 h): 0.01 µg/mL (≈ 0.0173 µM); MIC [22]: 50 µg/mL (≈ 86.6 µM); MIC [23]: 1 µg/mL (≈ 1.73 µM); MIC [24]: 1 µg/mL (≈ 1.73 µM); MIC [25]: > 100 µg/mL; MIC [26]: > 100 µg/mL; MIC [27]: > 100 µg/mL; MIC [28]: > 100 µg/mL; MIC [29]: > 100 µg/mL; MIC [30]: > 100 µg/mL; MIC [31]: > 100 µg/mL; IC50 [32]: 0.002 µg/mL (≈ 0.00346 µM); mice survived for 20 days or more ([33]; 4 micrograms/mouse/day): 60-70%; mice survived [33]: all mice survived; survival effect compared with critical level of effectiveness prescribed by the research institute [34]: exceed the critical level of effectiveness; survival effect [T/C×100] [34]: 140%; spread of metastasis in the lungs [35]: metastasis was scarcely observed; T/C×100 [36]: ≥ 140%; preventing effect against cancer metastasis as compared to saframycin A [36]: higher preventing effect

— patent US4837149A, “Novel saframycin A derivatives and process for producing the same” (priority 1984, dated 1989)
